Assay results taken from patent US20220054543A1, “Enteric Use of Potassium Permanganate in Humans and Animals” (priority 2020, published 2022).

System: common human coronaviruses (229E, NL63, OC43, and HKU1)
Experiment: enteric administration to humans, treating common human coronavirus infections
Assay type: in vivo

Measured: effective in treating infections resulting from the common human coronaviruses

Potassium permanganate
effective: adult humans, inhalation by cold-mist inhaler or nebulizer, 3.0 ml of 1:10,000 dilution (0.1 mg/mL solution) per day for three days | adult humans, inhalation by cold-mist inhaler or nebulizer, 3.0 ml of 1:50,000 dilution (0.02 mg/mL solution) per day for three days | adult humans, inhalation by cold-mist inhaler or nebulizer, 3.0 ml of 1:100,000 dilution (0.01 mg/mL solution) per day for three days | humans, intravenous, 10.0 cc per 45.4 kg of 1:10,000 dilution (0.1 mg/mL solution) per day for three days | humans, intravenous, 10.0 cc per 45.4 kg of 1:50,000 dilution (0.02 mg/mL solution) per day for three days | humans, intravenous, 10.0 cc per 45.4 kg of 1:100,000 dilution (0.01 mg/mL solution) per day for three days | humans, oral, 1 mg/kg per day for three days | humans, oral, 1 mg/kg per day on a daily basis (prophylactic) | humans, oral, 5 mg/kg per day for three days | humans, oral, 10 mg/kg per day for three days
